Laboratory results reported in patent publication US12570610B2, “Macromolecule-supported aminobenzazepine compounds” (Bolt Biotherapeutics, Inc., priority 2019, dated 2026).

What was measured:
[1] = target: T1, human TLR7 (Homo sapiens, UniProt Q9NYK1); test: HEK293 NFKB reporter cells expressing human TLR7 (HEK Reporter Assay); format: cell-based; settings: read-out: HEK293 hTLR7 EC50
T1 construct: host or cells: HEK293 reporter cells
T1 sequence (Q9NYK1 27-1049): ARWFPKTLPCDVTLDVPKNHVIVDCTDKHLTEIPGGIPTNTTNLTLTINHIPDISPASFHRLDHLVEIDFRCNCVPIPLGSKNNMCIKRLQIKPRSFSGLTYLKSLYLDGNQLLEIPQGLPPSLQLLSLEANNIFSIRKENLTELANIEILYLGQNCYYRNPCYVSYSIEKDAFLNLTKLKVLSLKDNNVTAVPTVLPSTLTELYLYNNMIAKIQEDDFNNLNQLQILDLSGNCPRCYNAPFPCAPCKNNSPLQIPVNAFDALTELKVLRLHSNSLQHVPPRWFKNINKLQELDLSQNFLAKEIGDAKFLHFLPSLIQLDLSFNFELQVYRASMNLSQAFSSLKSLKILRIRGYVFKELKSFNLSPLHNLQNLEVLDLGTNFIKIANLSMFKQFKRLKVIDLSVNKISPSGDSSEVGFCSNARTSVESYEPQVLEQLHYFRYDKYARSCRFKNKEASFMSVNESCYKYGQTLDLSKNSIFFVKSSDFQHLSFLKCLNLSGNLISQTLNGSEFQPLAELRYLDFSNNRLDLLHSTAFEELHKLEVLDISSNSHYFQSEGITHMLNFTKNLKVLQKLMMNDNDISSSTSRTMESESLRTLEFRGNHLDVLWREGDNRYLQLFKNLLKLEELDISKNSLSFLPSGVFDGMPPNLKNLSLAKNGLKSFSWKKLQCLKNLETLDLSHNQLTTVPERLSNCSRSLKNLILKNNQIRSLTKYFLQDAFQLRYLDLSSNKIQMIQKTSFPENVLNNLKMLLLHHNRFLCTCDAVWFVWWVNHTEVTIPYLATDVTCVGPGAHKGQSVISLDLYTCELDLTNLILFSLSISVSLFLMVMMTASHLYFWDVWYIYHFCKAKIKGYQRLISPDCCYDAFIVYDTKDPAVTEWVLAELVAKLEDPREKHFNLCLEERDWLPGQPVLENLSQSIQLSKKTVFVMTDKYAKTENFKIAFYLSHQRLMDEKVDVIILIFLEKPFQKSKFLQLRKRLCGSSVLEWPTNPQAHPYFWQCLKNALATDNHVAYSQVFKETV
Description: (§1) Each compound was synthesized and purified by the methods in the Examples provided herein, characterized by mass spectrometry, and shown to have the mass indicated. Activity against HEK293 NFKB reporter cells expressing human TLR7 or human TLR8 was measured according to method described in Example 67.
(§2) Example 67: HEK Reporter Assay
(§3) HEK293 reporter cells expressing human TLR7 or human TLR8 were purchased from Invivogen and vendor protocols were followed for cellular propagation and experimentation. Briefly, cells were grown to 80-85% confluence at 5% CO2 in DMEM supplemented with 10% FBS, Zeocin, and Blasticidin. Cells were then seeded in 96-well flat plates at 4×10^4 cells/well with substrate containing HEK detection medium and immunostimulatory molecules. Activity was measured using a plate reader at 620-655 nm wavelength.

[2] = target: T2, human TLR8 (Homo sapiens, UniProt Q9NR97); test: HEK293 NFKB reporter cells expressing human TLR8 (HEK Reporter Assay); format: cell-based; settings: read-out: HEK293 hTLR8 EC50
T2 construct: host or cells: HEK293 reporter cells
T2 sequence (Q9NR97 27-1041): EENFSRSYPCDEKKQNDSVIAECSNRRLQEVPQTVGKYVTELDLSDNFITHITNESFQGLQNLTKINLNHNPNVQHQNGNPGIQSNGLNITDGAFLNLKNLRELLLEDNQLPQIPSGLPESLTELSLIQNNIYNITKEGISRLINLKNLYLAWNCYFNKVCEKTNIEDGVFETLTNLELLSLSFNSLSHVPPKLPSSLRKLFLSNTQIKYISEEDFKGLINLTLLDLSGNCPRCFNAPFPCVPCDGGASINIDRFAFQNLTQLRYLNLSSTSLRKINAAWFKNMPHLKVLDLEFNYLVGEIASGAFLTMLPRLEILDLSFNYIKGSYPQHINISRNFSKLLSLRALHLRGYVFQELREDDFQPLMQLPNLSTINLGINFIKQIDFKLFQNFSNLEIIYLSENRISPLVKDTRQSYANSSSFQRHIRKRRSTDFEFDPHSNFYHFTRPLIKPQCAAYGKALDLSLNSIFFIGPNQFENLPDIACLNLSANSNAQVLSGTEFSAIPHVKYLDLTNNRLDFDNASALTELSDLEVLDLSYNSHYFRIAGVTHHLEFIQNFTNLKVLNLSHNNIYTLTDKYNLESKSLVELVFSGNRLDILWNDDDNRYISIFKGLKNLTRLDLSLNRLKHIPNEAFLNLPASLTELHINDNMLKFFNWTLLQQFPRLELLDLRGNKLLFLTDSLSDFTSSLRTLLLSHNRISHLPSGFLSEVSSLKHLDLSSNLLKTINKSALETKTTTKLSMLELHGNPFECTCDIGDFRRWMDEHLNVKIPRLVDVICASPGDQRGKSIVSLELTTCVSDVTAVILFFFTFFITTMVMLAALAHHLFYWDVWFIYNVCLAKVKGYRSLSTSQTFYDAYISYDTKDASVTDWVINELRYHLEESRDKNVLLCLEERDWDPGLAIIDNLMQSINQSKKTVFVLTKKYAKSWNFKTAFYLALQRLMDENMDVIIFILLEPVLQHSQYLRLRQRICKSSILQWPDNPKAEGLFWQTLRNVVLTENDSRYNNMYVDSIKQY
Description: as §1, §2, §3

EC50 [1] | EC50 [2] | SMILES
> 9 µM | – | CCCN(CCOC)C(=O)C1=Cc2ccc(-c3cccc(S(=O)(=O)N4CC(CO)C4)c3)cc2N=C(N)C1 [Bz-60]
– | > 9 µM | CCN(CC)C(=O)C1=Cc2ccc(-c3cccc(S(=O)(=O)N4CC(CO)C4)c3)cc2N=C(N)C1 [Bz-50]
> 9 µM | > 9 µM | CCCN(CCC)C(=O)C1=Cc2ccc(-c3cccc(S(=O)(=O)Nc4nccs4)c3)cc2N=C(N)C1 [Bz-35]
> 9 µM | > 9 µM | CCCNC(=O)C1=Cc2ccc(-c3cccc(S(=O)(=O)N4CC(CO)C4)c3)cc2N=C(N)C1 [Bz-58]
> 9 µM | 5.85 µM | CCCN(CCc1ccc(OC)cc1)C(=O)C1=Cc2ccc(-c3cccc(S(=O)(=O)N4CC(CN)C4)c3)cc2N=C(N)C1 [Bz-61]
> 9 µM | > 9 µM | CCCN(CCc1c[nH]cn1)C(=O)C1=Cc2ccc(-c3cccc(S(=O)(=O)N4CC(CO)C4)c3)cc2N=C(N)C1 [Bz-41]
– | 1.02 µM | CCCN(Cc1ccc(CN2CCN(C(=O)OC(C)(C)C)CC2)cc1)C(=O)C1=Cc2ccc(-c3cccc(S(=O)(=O)N4CC(CO)C4)c3)cc2N=C(N)C1 [Bz-44]
3.93 µM | 5.9 µM | CCCN(CCC)C(=O)C1=Cc2ccc(C(=O)COC)cc2N=C(N)C1 [Bz-65]

Continued, compound first:

SMILES | EC50 [1] | EC50 [2]
CCCN(CCC)C(=O)C1=Cc2ccc(-c3c(C)n[nH]c3C)cc2N=C(N)C1 [Bz-45] | > 9 µM | –
CCCN(CCC)C(=O)C1=Cc2ccc(-c3cccc(S(=O)(=O)NC(=O)c4ccccc4)c3)cc2N=C(N)C1 [Bz-37] | > 9 µM | > 9 µM
CCCN(Cc1ccc(CN(C)C)cc1)C(=O)C1=Cc2ccc(-c3cccc(S(=O)(=O)N4CC(CN)C4)c3)cc2N=C(N)C1 [Bz-62] | > 9 µM | > 9 µM
CCCN(CCC)C(=O)C1=Cc2ccc(-c3cc(C(F)(F)F)cc(S(=O)(=O)N4CC(CN(C)C)C4)c3)cc2N=C(N)C1 [Bz-40] | 0.332 µM | > 9 µM
CCCN(CCC(F)(F)F)C(=O)C1=Cc2ccc(C(=O)Nc3ccccc3)cc2N=C(N)C1 [Bz-75] | > 9 µM | –
CCCN(NCC)C(=O)C1=Cc2ccc(-c3cccc(S(=O)(=O)N4CC(CO)C4)c3)cc2N=C(N)C1 [Bz-71] | > 9 µM | –
CCCN(Cc1ccc(CN)cc1)C(=O)C1=Cc2ccccc2N=C(N)C1 [Bz-59] | > 9 µM | –
CCCN(CCC)C(=O)C1=Cc2ccc(CCCCCN)cc2N=C(N)C1 [Bz-74] | > 9 µM | –
